Blank lines part the entries; values can stand above or below the compound they belong to.
Assays:
[1] = tested on: hypertensive patients; settings: oral, single daily fixed dosage of 10 mg; 444 hypertensive patients; cited from earlier work
[2] = tested on: hypertensive subjects; assay: Change in plasma Hcy level after 57 days' treatment, hypertensive subjects grouped by MTHFR C677T genotype; assay type: in vivo, human; settings: for Significant change in Hcy (number of subjects): (day 57 − day 0)/day 0 ≧10%; for Non-significant change in Hcy (number of subjects): relative change below 10; for β(SE) of change in Hcy level: multiple linear regression adjusted for sex, age, BMI, smoking, drinking, baseline Hcy; for Mean change in Hcy level: plasma, Day 57 − Day 0
Protocol: We conducted a clinical epidemiology study, in which we classified hypertensive subjects into 677CC, 677CT, and 677TT groups based on the genotypes of MTHFR C677T polymorphism. Each subject was treated with Enalapril alone or combined with folate for 57 consecutive days. Pre-treatment and post-treatment plasma Hcy level, blood pressure (SBP/DBP), and urine albumin were measured. The major findings are summarized as follow. […]

[3] = cited from earlier work
[4] = tested on: subjects; assay: Liver injury as change in liver enzymes (ALT, AST) after 57 days' treatment, subjects grouped by MTHFR C677T genotype; assay type: in vivo, human; settings: for Significant change in ALT (number of subjects): (ALT day 57-ALT day 0)/ALT day 0>15%
Protocol: In our clinical epidemiology study, we classified subjects into 677CC, 677CT, and 677TT groups based on the MTHFR C677T genotype. Each subject was treated with ENAZEPRIL alone or combined with folate for 57 consecutive days. Pre-treatment and post-treatment liver enzymes (ALT and AST) were measured. The MTHFR C677T polymorphism can affect the degree of liver injury induced by ACEI medicine combined with folate. […] Remarkably, given the combination therapy, Subjects with MTHFR 677CC genotype tend to have greater increase in ALT and AST, but subjects with MTHFR 677TT genotype tend to have less increase in ALT and AST. Subjects with MTHFR 677CT genotype fell in-between.
In our clinical epidemiology study, we classified subjects into 677CC, 677CT, and 677TT groups based on the MTHFR C677T genotype. Each subject was treated with ENAZEPRIL alone or combined with folate for 57 consecutive days. Pre-treatment and post-treatment liver enzymes (ALT and AST) were measured.

[5] = tested on: hypertensive patients; assay: Change in plasma Hcy level after 57 days' treatment, hypertensive patients grouped by MTHFR A1298C genotype; assay type: in vivo, human; settings: for β(SE) of change in Hcy level: adjusted for sex, age, BMI, smoking, drinking, baseline Hcy; for Mean change in Hcy level: plasma, Day 57 − Day 0
Protocol: In our clinical epidemiology study, we classified hypertensive patients into 1298AA, 1298AC, and 1298CC groups based on the genotype of MTHFR A1298C polymorphism. Each subject was treated with ACEI medicine alone or combined with folate for 57 consecutive days. Pre-treatment and post-treatment plasma Hcy level, blood pressure (SBP/DBP), and urine albumin were measured.

[6] = biological target: angiotensin converting enzyme I (Homo sapiens, UniProt P12821); settings: cited from earlier work
Chain of angiotensin converting enzyme I (P12821 30-1306): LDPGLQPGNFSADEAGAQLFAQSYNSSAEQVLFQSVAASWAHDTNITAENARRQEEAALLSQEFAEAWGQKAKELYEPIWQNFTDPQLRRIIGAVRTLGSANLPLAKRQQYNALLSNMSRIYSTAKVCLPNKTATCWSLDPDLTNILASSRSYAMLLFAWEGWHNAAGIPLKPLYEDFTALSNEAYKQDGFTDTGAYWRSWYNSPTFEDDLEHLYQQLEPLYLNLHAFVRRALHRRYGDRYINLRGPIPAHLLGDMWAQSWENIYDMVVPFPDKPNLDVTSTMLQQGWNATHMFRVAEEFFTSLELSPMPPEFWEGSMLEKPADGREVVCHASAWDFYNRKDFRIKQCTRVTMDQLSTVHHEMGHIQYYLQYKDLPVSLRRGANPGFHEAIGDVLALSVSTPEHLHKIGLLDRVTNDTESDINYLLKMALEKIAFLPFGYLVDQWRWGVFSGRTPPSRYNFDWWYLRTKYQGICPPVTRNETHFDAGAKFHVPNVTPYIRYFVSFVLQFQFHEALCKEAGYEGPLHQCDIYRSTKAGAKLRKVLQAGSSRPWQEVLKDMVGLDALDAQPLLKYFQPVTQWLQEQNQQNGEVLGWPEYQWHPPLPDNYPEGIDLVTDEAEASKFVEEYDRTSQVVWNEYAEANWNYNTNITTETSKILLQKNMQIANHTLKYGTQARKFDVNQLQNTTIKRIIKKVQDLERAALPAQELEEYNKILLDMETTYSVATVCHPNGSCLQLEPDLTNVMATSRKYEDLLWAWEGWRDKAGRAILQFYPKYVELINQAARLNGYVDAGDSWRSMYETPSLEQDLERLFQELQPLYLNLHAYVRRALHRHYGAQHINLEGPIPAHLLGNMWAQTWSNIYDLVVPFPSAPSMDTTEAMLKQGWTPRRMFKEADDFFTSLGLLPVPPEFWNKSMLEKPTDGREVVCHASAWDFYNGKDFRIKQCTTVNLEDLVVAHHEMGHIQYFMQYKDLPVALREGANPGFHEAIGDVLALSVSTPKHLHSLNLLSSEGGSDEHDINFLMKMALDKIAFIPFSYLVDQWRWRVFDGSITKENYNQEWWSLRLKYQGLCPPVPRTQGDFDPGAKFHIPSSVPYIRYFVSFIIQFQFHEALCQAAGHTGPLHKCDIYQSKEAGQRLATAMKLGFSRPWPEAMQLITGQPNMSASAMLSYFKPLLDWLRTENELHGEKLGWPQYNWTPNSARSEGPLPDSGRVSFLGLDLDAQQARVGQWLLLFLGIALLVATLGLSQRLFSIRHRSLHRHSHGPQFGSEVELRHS

[7] = Table 19, 677CC, day 57 minus day 0
[8] = Table 19, 677CT, day 57 minus day 0
[9] = Table 19, 677TT, day 57 minus day 0

Structure (SMILES): CCOC(=O)[C@H](CCc1ccccc1)N[C@H]1CCc2ccccc2N(CC(=O)O)C1=O [Benazepril]
Change in diastolic blood pressure, TT genotype vs CT or CC genotype [1]: significantly higher

Significant change in Hcy (number of subjects) ([2]; 677CC + CT): 12
Non-significant change in Hcy (number of subjects) ([2]; 677CC + CT): 39
Subjects with significant change in Hcy level ([2]; 677CT or CC): 23.3%
β(SE) of change in Hcy level ([2]; 677CT vs 677CC): 0.7 (1.3)
Subjects with significant change in Hcy level ([2]; 677TT genotype): 38.5%
β(SE) of change in Hcy level ([2]; 677TT vs 677CC): 3.9 (1.3)
Significant change in Hcy (number of subjects) ([2]; 677TT): 10
Non-significant change in Hcy (number of subjects) ([2]; 677TT): 16
Plasma Hcy level after treatment ([2]; Enalapril alone for 57 days): increased level of plasma Hcy
Mean change in Hcy level ([2]; MTHFR 677CC): -0.5 µmol/L
Mean change in Hcy level ([2]; MTHFR 677CT): 1.2 µmol/L
Mean change in Hcy level ([2]; MTHFR 677TT): 2.7 µmol/L
Significant change in Hcy (number of subjects) ([2]; Total, all genotypes): 22
Non-significant change in Hcy (number of subjects) ([2]; Total, all genotypes): 55
Subjects with significant change in Hcy level ([2]; overall (22/77)): 28.6%
Structure (SMILES): CCOC(=O)[C@H](CCc1ccccc1)N[C@@H](C)C(=O)N1CCC[C@H]1C(=O)O [ENALAPRIL, Enalapril]
Half-time ([3]; in vivo): 11 h
Duration of blood pressure lowering effect ([3]; regular dosage): more than 24 hours

β(SE) of change in Hcy level ([5]; 1298AA vs 1298CC): 2.3 (1.8)
β(SE) of change in Hcy level ([5]; 1298AC vs 1298CC): 0.2 (1.5)
Mean change in Hcy level ([5]; MTHFR 1298AA): 3.0 µmol/L
Mean change in Hcy level ([5]; MTHFR 1298AC): 1.2 µmol/L
Mean change in Hcy level ([5]; MTHFR 1298CC): 1.1 µmol/L
Structure (SMILES): CCOC(=O)[C@H](CCc1ccccc1)N[C@@H](C)C(=O)N1CCC[C@H]1C(=O)O [ENAZEPRIL]
Insignificant change in ALT (number of subjects) ([4]; 677CC): 20
Significant change in ALT (number of subjects) ([4]; 677CC): 32
Insignificant change in ALT (number of subjects) ([4]; 677TT): 34
Significant change in ALT (number of subjects) ([4]; 677TT): 14
Mean change in ALT [4, 7]: 13.8 U/L
Mean change in AST [4, 7]: 7.1 U/L
Mean change in ALT [4, 8]: 10.1 U/L
Mean change in AST [4, 8]: 5.2 U/L
Mean change in ALT [4, 9]: 7.3 U/L
Mean change in AST [4, 9]: 0.3 U/L
Mean change in ALT ([4]; Table 20, 677CC, Day57 − Day0): 17.92 U/L
Mean change in AST ([4]; Table 20, 677CC, Day57 − Day0): 4.95 U/L
Mean change in ALT ([4]; Table 20, 677CT, Day57 − Day0): 10.15 U/L
Mean change in AST ([4]; Table 20, 677CT, Day57 − Day0): 5.81 U/L
Mean change in ALT ([4]; Table 20, 677TT, Day57 − Day0): 9.4 U/L
Mean change in AST ([4]; Table 20, 677TT, Day57 − Day0): 0.08 U/L
Insignificant change in ALT (number of subjects) ([4]; Total (CC and TT)): 54
Significant change in ALT (number of subjects) ([4]; Total (CC and TT)): 46
Increase in ALT and AST ([4]; subjects with MTHFR 677CC genotype, Enazepril alone): greatest increase in ALT and AST
Plasma Hcy level after treatment ([5]; ENAZEPRIL alone for 57 days): significantly increased level of plasma Hcy

Structure (SMILES): C[C@H](N[C@@H](CCc1ccccc1)C(=O)O)C(=O)N1CCC[C@H]1C(=O)O [Enalaprilat]
Inhibition of angiotensin converting enzyme I compared with enalapril [6]: powerful effect on inhibiting angiotensin converting enzyme I than enalapril

Reference: US20070134709A1, “Usages of MTHFR gene polymorphisms in predicting homocysteine level, disease risk, and treatment effects and related methods and kit” (priority 2005, published 2007)
